Test results taken from publication PMC11945486, “TAS1R2/TAS1R3 Single-Nucleotide Polymorphisms Affect Sweet Taste Receptor Activation by Sweeteners: The SWEET Project” (Nutrients, 2025).
Substitutions are numbered along the chain they refer to.

Assays:
mTAS1R2-WT/mTAS1R3-WT = molecular target: T1, mTAS1R2-WT/mTAS1R3-WT (Mus musculus, UniProt Q925D8+Q925I4); assay: Calcium mobilisation assay, HEK293T-Gα16gust44 cells, mouse sweet taste receptor WT; type: cell-based; details: mTAS1R2-WT + mTAS1R3-WT; "-": no activation
T1 construct: expressed in transfected cells; host or cells: HEK293T-Gα16gust44
T1 sequence (Q925I4 20-843): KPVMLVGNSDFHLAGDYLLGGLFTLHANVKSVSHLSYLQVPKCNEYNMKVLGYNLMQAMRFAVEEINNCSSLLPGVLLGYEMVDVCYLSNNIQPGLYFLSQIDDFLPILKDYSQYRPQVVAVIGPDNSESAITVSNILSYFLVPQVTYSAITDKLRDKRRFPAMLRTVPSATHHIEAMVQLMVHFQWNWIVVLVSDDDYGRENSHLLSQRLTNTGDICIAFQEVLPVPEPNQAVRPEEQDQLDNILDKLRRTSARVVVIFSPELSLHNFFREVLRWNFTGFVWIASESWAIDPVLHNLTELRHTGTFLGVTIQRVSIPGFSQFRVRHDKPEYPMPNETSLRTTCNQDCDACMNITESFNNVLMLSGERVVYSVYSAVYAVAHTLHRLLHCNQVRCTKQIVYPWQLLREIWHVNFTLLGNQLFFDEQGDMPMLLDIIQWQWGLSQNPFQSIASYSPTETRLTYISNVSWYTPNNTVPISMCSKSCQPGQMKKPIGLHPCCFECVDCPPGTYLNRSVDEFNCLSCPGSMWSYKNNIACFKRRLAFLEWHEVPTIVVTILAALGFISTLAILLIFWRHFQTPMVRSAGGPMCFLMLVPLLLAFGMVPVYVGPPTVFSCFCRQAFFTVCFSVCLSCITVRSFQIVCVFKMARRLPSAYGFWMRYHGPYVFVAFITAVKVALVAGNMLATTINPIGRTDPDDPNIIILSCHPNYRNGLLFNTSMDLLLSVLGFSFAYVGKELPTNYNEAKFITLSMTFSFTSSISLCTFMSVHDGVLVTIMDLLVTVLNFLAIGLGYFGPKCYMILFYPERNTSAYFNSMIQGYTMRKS
T1 sequence (Q925D8 21-858): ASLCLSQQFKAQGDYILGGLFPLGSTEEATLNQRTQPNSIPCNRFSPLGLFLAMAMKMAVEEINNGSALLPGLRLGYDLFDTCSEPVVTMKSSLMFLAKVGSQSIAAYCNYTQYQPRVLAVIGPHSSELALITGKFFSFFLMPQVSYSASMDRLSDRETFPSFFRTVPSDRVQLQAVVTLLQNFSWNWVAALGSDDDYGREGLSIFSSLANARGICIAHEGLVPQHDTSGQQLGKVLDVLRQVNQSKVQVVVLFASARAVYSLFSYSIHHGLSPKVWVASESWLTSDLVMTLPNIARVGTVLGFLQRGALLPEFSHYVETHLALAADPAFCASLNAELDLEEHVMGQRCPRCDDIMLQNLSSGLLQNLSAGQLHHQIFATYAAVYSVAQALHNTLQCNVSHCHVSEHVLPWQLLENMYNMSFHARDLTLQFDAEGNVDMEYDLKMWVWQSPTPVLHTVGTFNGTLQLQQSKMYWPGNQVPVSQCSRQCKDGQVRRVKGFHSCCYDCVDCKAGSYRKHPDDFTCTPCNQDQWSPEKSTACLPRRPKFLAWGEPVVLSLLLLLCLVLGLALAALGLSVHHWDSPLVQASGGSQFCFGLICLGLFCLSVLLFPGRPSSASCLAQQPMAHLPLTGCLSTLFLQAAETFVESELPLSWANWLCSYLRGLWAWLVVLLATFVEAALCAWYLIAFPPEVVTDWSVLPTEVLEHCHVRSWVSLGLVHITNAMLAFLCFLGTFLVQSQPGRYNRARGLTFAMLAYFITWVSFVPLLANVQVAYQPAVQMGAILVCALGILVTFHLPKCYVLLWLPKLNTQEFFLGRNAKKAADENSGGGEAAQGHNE
Experimental: (§1) The HEK293T cells were kindly provided by Jay P. Slack (Givaudan Flavors Corporation; Cincinnati, OH, USA). HEK293T cells stably transfected with Gα16gust44 [43, 67] were seeded in poly-D-lysine-coated clear-bottom black 96-well plates (0.35 × 10^5 cells/well) in high-glucose DMEM supplemented with 2 mM GlutaMAX, 10% dialysed foetal bovine serum with penicillin/streptomycin and G418 (400 μg/mL) at 37 °C and 6.3% CO2 in a humidified atmosphere as previously reported. […] As a negative control, HEK293T cells were mock-transfected with the empty expression vector. After a further 24 h of incubation, the HEK293T cells were washed with C1 buffer (130 mM NaCl, 5 mM KCl, 10 mM HEPES pH 7.4 and 2 mM CaCl2). The 96-well plates containing the cells were then stimulated with sweet-tasting compounds. […] Different concentration ranges were tested depending on the sweet compound injected. The Ca^2+ changes were expressed as fractional changes in fluorescent light intensity: ΔF/F = (F − F0)/F0, where F was the fluorescent light intensity at each point, and F0 was the value of emitted fluorescent light prior to stimulus application. To calculate dose–response relationships, the changes in fluorescence upon stimulus application were averaged, mock-subtracted and baseline-corrected. The dose–response data obtained were adjusted using a 4-parameter logistic equation. The half-maximal effective concentrations (EC50 values) and maximal signal amplitudes were calculated using SigmaPlot software (version 15.0) (Systat Software; San Jose, CA, USA).
(§2) HEK293T-Gα16gust44 cells were transiently cotransfected with pcDNA6-MAX-mTAS1R2-FLAG, pcDNA4-MAX-mTAS1R3-WT-FLAG or pcDNA4-MAX-mTAS1R3-I60T-FLAG, and pCMV-GCaMP5G as previously described in detail. After 24 h, the cells were washed with C1 buffer and stimulated with a logarithmically increasing range of sweetener concentrations. Calcium responses during automated application were monitored using a FlexStation®3 Multi-Mode microplate reader. The dose–response curves, EC50 values and maximal signal amplitudes were calculated as previously described.
(§3) For in vitro calcium mobilisation assay performed on hTAS1R2-SNPs, hTAS1R3-SNPs and mTAS1R3-I60T, 6 to 7 concentrations were tested for each sweet compound, plus buffer alone. All concentration–receptor combinations were measured in duplicate, and each experiment was repeated at least 4 times (8 wells/concentration). Results were expressed for each concentration as ΔF/F mean ± SEM and represented as dose–response curves.

mTAS1R2-WT/mTAS1R3-I60T = molecular target: T2, mTAS1R2-WT/mTAS1R3-I60T (Mus musculus, UniProt Q925D8+Q925I4, I60T); assay: Calcium mobilisation assay, HEK293T-Gα16gust44 cells, mouse TAS1R3-I60T variant; type: cell-based; details: mTAS1R2-WT + mTAS1R3-I60T; "-": no activation
T2 construct: expressed in transfected cells; host or cells: HEK293T-Gα16gust44
T2 sequence (Q925I4 20-843): T1 sequence (Q925I4 20-843)
T2 sequence (Q925D8 21-858 I60T): T1 sequence (Q925D8 21-858) with I40T
Experimental: as §1, §2, §3

EC50 (mTAS1R2-WT/mTAS1R3-WT): 1520 ± 17 µM | EC50 (mTAS1R2-WT/mTAS1R3-I60T): 2540 ± 61 µM
Compound: O=C1NS(=O)(=O)c2ccccc21 [Saccharin, saccharin]
